According to ChEMBL document CHEMBL5653631, “A Potent and Selective ULK1 Inhibitor Suppresses Autophagy and Sensitizes Cancer Cells to Nutrient Stress” (iScience, 2018):

Tests used:
[1] = target: Tyrosine-protein kinase Yes (Homo sapiens) (UniProt P07947); assay: Inhibition of human recombinant YES at 40 nM in presence of ATP by radiometric assay relative to control
[2] = target: Serine/threonine-protein kinase SBK1 (Homo sapiens) (UniProt Q52WX2); assay: Inhibition of human recombinant SBK1 at 15 nM in presence of ATP by radiometric assay relative to control
Chain of Serine/threonine-protein kinase SBK1 (Homo sapiens) (Q52WX2 whole entry): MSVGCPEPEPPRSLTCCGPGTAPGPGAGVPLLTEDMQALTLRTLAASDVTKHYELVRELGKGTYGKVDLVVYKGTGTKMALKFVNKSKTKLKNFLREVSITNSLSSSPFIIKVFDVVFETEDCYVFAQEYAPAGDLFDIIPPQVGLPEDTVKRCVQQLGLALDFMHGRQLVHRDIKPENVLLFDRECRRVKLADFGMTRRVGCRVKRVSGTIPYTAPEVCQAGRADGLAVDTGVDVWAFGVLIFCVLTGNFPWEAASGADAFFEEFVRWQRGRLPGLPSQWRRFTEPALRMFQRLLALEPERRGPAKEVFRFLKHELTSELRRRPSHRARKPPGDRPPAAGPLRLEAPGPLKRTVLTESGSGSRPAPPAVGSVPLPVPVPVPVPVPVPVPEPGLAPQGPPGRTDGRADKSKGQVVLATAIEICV

[3] = target: T1, Dual specificity mitogen-activated protein kinase kinase 6 (Homo sapiens) (UniProt P52564); assay: Inhibition of human recombinant MAP2K6 at 15 nM related to control ULK1
T1 sequence (whole entry): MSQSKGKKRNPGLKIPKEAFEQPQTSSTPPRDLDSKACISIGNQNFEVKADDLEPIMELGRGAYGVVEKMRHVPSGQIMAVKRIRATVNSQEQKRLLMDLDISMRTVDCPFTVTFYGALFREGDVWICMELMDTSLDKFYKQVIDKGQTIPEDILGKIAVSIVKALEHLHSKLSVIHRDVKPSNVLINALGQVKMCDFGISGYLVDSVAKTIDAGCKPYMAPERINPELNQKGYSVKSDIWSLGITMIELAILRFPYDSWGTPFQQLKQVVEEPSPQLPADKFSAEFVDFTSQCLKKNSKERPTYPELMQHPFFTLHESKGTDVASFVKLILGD

[4] = target: MAP kinase-activated protein kinase 2 (Homo sapiens) (UniProt P49137); assay: Inhibition of human recombinant MAPKAPK2 at 15 nM in presence of ATP by radiometric assay relative to control
Chain of MAP kinase-activated protein kinase 2 (Homo sapiens) (P49137 whole entry, looked up): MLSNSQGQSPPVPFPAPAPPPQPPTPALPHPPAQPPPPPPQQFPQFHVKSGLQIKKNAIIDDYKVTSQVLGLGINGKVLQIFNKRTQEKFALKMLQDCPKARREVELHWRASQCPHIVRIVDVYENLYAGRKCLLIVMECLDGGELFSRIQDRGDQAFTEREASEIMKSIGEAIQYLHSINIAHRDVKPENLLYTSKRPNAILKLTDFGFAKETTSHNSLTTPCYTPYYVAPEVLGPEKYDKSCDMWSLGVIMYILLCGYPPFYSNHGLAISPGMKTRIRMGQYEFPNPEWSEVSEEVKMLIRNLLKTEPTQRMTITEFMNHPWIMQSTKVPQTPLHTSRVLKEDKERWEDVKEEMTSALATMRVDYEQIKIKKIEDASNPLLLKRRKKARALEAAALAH

[5] = target: Tyrosine-protein kinase HCK (Homo sapiens) (UniProt P08631); assay: Inhibition of human recombinant HCK at 15 nM related to control ULK1
Chain of Tyrosine-protein kinase HCK (Homo sapiens) (P08631 2-526 limits assumed): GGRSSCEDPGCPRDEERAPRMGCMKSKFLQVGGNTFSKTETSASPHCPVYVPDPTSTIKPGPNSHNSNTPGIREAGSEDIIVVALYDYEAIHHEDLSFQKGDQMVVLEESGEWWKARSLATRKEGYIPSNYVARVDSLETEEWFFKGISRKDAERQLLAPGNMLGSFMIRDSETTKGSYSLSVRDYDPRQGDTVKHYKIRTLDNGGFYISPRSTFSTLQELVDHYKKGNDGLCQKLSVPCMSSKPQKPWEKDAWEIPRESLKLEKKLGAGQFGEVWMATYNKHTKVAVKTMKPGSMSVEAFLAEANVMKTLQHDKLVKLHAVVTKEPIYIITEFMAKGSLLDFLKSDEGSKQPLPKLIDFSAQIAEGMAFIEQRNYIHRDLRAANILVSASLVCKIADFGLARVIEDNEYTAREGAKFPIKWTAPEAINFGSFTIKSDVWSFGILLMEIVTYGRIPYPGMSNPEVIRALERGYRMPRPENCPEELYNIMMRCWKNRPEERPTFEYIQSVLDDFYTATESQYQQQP

[6] = target: Tyrosine-protein kinase Fgr (Homo sapiens) (UniProt P09769); assay: Inhibition of human recombinant FGR at 15 nM in presence of ATP by radiometric assay relative to control
Chain of Tyrosine-protein kinase Fgr (Homo sapiens) (P09769 2-529 limits assumed): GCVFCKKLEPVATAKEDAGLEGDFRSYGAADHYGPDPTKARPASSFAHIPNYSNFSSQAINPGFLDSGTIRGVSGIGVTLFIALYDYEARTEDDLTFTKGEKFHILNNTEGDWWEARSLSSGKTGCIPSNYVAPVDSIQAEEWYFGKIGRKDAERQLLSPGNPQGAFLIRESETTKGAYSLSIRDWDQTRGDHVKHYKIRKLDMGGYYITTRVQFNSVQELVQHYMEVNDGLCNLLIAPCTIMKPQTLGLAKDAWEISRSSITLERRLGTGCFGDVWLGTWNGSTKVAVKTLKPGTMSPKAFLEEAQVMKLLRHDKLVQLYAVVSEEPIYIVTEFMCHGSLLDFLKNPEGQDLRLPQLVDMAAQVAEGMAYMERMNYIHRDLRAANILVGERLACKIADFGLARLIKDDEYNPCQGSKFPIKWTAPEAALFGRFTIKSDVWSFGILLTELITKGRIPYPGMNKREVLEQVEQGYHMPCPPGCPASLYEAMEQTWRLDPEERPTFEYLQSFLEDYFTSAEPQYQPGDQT

[7] = target: T2, Ephrin type-A receptor 3 (Homo sapiens) (UniProt P29320); assay: Inhibition of human recombinant EphA3 at 15 nM in presence of ATP by radiometric assay relative to control
T2 sequence (whole entry): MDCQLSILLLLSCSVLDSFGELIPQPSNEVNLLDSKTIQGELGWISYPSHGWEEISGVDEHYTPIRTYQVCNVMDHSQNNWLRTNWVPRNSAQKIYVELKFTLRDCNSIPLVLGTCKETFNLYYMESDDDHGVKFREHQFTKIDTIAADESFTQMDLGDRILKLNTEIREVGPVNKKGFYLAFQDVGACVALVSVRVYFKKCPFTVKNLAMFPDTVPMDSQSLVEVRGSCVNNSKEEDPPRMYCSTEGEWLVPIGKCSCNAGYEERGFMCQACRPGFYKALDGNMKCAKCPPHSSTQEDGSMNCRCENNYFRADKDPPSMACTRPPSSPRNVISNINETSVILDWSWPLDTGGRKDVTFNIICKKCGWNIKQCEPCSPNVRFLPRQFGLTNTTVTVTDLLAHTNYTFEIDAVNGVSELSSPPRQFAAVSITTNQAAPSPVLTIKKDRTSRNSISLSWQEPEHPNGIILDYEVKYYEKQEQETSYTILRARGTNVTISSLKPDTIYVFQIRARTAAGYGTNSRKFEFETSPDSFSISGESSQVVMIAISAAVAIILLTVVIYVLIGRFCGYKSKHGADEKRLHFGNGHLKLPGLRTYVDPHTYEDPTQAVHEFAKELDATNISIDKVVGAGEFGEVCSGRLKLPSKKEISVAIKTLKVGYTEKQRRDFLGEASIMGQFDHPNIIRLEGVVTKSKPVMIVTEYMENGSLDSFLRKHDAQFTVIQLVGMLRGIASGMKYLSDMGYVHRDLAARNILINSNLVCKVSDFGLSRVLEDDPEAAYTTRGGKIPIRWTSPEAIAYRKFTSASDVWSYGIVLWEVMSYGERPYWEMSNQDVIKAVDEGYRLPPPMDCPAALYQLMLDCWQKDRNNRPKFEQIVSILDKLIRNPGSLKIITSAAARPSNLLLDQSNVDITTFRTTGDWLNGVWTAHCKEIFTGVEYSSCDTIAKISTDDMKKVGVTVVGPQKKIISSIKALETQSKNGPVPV

[8] = target: Dual specificity tyrosine-phosphorylation-regulated kinase 1A (Homo sapiens) (UniProt Q13627); assay: Inhibition of human recombinant DYRK1A at 500 nM in presence of ATP by radiometric assay relative to control
[9] = target: Dual specificity protein kinase CLK3 (Homo sapiens) (UniProt P49761); assay: Inhibition of human recombinant CLK3 at 500 nM in presence of ATP by radiometric assay relative to control
Chain of Dual specificity protein kinase CLK3 (Homo sapiens) (P49761 whole entry, looked up): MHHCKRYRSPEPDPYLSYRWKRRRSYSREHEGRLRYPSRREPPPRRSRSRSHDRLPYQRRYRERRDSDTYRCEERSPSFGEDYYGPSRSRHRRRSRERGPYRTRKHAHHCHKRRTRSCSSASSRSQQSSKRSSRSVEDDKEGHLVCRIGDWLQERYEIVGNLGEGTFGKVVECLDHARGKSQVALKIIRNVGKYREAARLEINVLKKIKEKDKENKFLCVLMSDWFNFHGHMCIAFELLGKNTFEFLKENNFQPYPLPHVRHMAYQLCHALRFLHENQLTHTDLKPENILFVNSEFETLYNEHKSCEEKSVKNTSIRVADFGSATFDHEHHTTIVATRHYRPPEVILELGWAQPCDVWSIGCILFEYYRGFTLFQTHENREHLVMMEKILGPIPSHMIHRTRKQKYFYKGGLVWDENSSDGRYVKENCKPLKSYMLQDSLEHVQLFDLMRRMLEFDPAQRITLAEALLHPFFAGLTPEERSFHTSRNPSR

[10] = target: High affinity nerve growth factor receptor (Homo sapiens) (UniProt P04629); assay: Inhibition of human recombinant TRKA at 500 nM in presence of ATP by radiometric assay relative to control
Chain of High affinity nerve growth factor receptor (Homo sapiens) (P04629 33-796 limits assumed): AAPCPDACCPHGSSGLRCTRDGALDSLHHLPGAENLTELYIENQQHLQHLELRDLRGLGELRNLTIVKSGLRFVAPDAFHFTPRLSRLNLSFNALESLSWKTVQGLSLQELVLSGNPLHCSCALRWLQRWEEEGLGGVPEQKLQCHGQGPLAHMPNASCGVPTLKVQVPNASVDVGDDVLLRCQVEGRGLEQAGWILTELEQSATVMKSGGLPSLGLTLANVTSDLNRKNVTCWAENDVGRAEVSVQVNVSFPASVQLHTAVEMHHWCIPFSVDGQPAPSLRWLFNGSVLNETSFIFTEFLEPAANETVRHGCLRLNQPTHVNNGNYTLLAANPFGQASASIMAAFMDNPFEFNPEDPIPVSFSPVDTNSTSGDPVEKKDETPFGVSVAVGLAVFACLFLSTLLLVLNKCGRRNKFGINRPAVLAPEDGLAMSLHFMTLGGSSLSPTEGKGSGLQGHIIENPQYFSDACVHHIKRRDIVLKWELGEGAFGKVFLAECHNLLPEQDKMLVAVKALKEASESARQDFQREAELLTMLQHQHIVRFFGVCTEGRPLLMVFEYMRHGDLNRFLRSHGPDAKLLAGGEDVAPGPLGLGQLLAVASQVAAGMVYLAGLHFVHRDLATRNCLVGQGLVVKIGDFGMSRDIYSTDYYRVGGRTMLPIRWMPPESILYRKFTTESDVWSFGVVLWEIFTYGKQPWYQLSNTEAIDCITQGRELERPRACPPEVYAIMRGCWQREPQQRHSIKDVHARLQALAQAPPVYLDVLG

[11] = target: Wee1-like protein kinase 2 (Homo sapiens) (UniProt P0C1S8); assay: Inhibition of human recombinant Wee1B at 500 nM related to control ULK1
Chain of Wee1-like protein kinase 2 (Homo sapiens) (P0C1S8 whole entry, looked up): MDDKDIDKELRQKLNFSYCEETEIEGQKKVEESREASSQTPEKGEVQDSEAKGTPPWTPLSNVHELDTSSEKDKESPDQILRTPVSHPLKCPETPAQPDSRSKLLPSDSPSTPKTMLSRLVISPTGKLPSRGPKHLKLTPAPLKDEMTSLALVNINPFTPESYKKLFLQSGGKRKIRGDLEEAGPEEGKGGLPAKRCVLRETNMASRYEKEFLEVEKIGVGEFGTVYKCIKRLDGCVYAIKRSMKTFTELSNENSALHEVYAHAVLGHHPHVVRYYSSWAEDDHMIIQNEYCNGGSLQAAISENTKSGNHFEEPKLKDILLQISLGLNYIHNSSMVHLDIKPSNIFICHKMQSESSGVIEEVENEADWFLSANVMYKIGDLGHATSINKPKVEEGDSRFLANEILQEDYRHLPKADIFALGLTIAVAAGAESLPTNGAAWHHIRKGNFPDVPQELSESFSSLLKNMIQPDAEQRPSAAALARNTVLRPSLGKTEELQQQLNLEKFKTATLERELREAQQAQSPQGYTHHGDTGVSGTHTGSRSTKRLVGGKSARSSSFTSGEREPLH

[12] = target: Serine/threonine-protein kinase pim-2 (Homo sapiens) (UniProt Q9P1W9); assay: Inhibition of human recombinant PIM2 at 500 nM in presence of ATP by radiometric assay relative to control
Chain of Serine/threonine-protein kinase pim-2 (Homo sapiens) (Q9P1W9 whole entry, looked up): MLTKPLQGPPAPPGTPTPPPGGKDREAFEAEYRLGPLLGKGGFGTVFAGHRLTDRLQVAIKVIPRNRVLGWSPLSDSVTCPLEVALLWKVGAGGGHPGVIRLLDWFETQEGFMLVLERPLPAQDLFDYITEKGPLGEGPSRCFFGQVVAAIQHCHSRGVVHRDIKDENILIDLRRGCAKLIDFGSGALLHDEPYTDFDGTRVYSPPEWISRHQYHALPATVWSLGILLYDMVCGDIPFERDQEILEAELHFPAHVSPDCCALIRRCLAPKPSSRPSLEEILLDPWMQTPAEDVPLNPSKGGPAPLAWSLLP

Chain of Tyrosine-protein kinase Yes (Homo sapiens) (P07947 2-543 limits assumed): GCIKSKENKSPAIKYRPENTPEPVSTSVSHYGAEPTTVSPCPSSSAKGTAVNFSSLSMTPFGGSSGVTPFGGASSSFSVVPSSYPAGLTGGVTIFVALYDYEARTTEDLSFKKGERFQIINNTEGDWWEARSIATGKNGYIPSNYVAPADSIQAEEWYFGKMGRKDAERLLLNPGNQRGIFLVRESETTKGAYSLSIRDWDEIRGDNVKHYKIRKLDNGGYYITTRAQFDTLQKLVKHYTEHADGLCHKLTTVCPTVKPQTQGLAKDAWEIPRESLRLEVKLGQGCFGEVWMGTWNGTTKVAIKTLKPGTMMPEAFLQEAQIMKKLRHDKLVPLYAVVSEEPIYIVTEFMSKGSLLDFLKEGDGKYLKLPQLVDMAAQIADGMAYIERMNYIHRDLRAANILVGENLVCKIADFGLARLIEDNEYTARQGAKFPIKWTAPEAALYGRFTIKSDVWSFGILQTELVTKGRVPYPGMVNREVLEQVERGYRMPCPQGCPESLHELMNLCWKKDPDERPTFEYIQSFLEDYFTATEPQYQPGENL

O=C(N[C@@H](C1CC1)C(F)(F)F)c1cc(-c2cnn3cc(-c4ccc(F)cc4)cnc23)cs1
inhibition [1]: 23%

CC(C)[C@H](NC(=O)c1cc(-c2cnn3cc(-c4ccc(OCCN5CCCCC5)cc4)cnc23)cs1)C(F)(F)F
inhibition [2]: 5%
fold change (FC) [3]: 0.06
inhibition [4]: 0%
fold change (FC) [5]: 0.3
inhibition [6]: 43%
inhibition [7]: 3%

CNC(=O)c1ccccc1Oc1nc(Nc2cc(OC)c(OC)c(OC)c2)ncc1Br
inhibition [8]: 1%
inhibition [9]: 0%
inhibition [10]: 52%
fold change (FC) [11]: 0.03
inhibition [12]: 2%
